Experimental data as given in the NIST ThermoML archive (doi:10.1016/j.fluid.2011.12.029).
± gives the expanded uncertainty stated by the source.

Conditions: Liquid, Vibrating tube method

CCCC[n+]1ccccc1.O=S(=O)([O-])C(F)(F)F [1-butylpyridinium trifluoromethanesulfonate]
mass density [kg/m3]
Conditions | 303.15 K | 308.15 K | 313.15 K | 318.15 K | 323.15 K | 328.15 K | 333.15 K
100 kPa | 1311.77 ± 0.49 | 1307.87 ± 0.49 | 1303.91 ± 0.49 | 1299.91 ± 0.48 | 1296.31 ± 0.48 | 1292.18 ± 0.48 | 1288.27 ± 0.47
5000 kPa | 1314.63 ± 0.56 | 1310.78 ± 0.55 | 1306.89 ± 0.55 | 1303.07 ± 0.54 | 1298.89 ± 0.54 | 1295.18 ± 0.54 | 1291.41 ± 0.53
10000 kPa | 1317.44 ± 0.62 | 1313.65 ± 0.62 | 1309.74 ± 0.61 | 1305.66 ± 0.61 | 1302.15 ± 0.6 | 1298.11 ± 0.6 | 1294.46 ± 0.59
15000 kPa | 1320.2 ± 0.69 | 1316.6 ± 0.68 | 1312.65 ± 0.68 | 1308.66 ± 0.67 | 1304.98 ± 0.66 | 1301.2 ± 0.66 | 1297.41 ± 0.65
20000 kPa | 1322.82 ± 0.75 | 1319.24 ± 0.75 | 1315.17 ± 0.74 | 1311.4 ± 0.73 | 1307.88 ± 0.73 | 1304.07 ± 0.72 | 1300.4 ± 0.72
25000 kPa | 1325.53 ± 0.82 | 1321.85 ± 0.81 | 1317.99 ± 0.81 | 1314.14 ± 0.8 | 1310.7 ± 0.79 | 1306.75 ± 0.79 | 1303.31 ± 0.78
30000 kPa | 1328.06 ± 0.89 | 1324.38 ± 0.88 | 1320.63 ± 0.87 | 1316.74 ± 0.87 | 1313.34 ± 0.86 | 1309.49 ± 0.85 | 1306.06 ± 0.84
35000 kPa | 1330.48 ± 0.96 | 1326.93 ± 0.95 | 1323.08 ± 0.94 | 1319.52 ± 0.93 | 1315.79 ± 0.93 | 1312.17 ± 0.92 | 1308.77 ± 0.91
40000 kPa | 1332.93 ± 1 | 1329.48 ± 1 | 1325.67 ± 1 | 1322.07 ± 1 | 1318.44 ± 0.99 | 1314.65 ± 0.98 | 1311.33 ± 0.98
45000 kPa | 1335.28 ± 1.1 | 1331.89 ± 1.1 | 1328.04 ± 1.1 | 1324.29 ± 1.1 | 1321.03 ± 1.1 | 1317.18 ± 1.1 | 1313.93 ± 1
50000 kPa | 1337.67 ± 1.2 | 1333.97 ± 1.2 | 1330.42 ± 1.1 | 1326.61 ± 1.1 | 1323.34 ± 1.1 | 1319.65 ± 1.1 | 1316.36 ± 1.1
55000 kPa | 1339.98 ± 1.2 | 1336.34 ± 1.2 | 1332.73 ± 1.2 | 1328.88 ± 1.2 | 1325.68 ± 1.2 | 1322 ± 1.2 | 1318.77 ± 1.2
60000 kPa | 1342.03 ± 1.3 | 1338.51 ± 1.3 | 1334.95 ± 1.3 | 1331.4 ± 1.3 | 1328.01 ± 1.3 | 1324.3 ± 1.3 | 1320.81 ± 1.2
65000 kPa | 1344.13 ± 1.4 | 1340.54 ± 1.4 | 1337.08 ± 1.4 | 1333.55 ± 1.4 | 1330.03 ± 1.3 | 1326.69 ± 1.3 | 1323.38 ± 1.3
